Peptide text beside a SMILES is read from it.
Key:
Leukemia cell lines = experiment: NCI-60 screening, average of cancer type; format: cell-based, human; conditions: for log GI50: Table 5, Leukemia, averaged over cell lines, 48 h, sulforhodamine B, 10^-4 to 10^-8 M; for Log GI (M): Table S3, Leukemia, averaged activity for the cancer type, log GI50
Procedure: (§1) NCI-60 screening procedure
(§2) The NCI-60 screening procedure was performed by the Developmental Therapeutics Program of the National Cancer Institute. The procedure was performed as previously described24 in 96-well microtiter plates. Each peptide was tested in a 5-concentration assay, starting at 10^-4 M and diluting 10-fold to the lowest 10^-8 M concentration. The peptides were incubated for 48 h and the cell concentration was assayed by using the sulforhodamine B assay25 and optical density measurements. The growth inhibition (GI50) value24, measures the growth inhibitory power of the drug agent. The GI50 value is the concentration of the test drug for which the condition in Eq. S1 is met, where T is the optical density of the test well after a 48-h exposure to the peptide, T0 the optical density before applying the peptide drug and C the control optical density of a well where no peptide was applied.

Melanoma cell lines = experiment: NCI-60 screening, average of cancer type; format: cell-based, human; conditions: for log GI50: Table 5, Melanoma, averaged over cell lines, 48 h, sulforhodamine B, 10^-4 to 10^-8 M; for Log GI (M): Table S3, Melanoma, averaged activity for the cancer type, log GI50
Procedure: as §1, §2

Renal cancer cell lines = experiment: NCI-60 screening, average of cancer type; format: cell-based, human; conditions: for log GI50: Table 5, Renal, averaged over cell lines, 48 h, sulforhodamine B, 10^-4 to 10^-8 M; for Log GI (M): Table S3, Renal, averaged activity for the cancer type, log GI50
Procedure: as §1, §2

[1] = tested on: Ovarian cancer cell lines; experiment: NCI-60 screening, average of cancer type; format: cell-based, human; conditions: for log GI50: Table 5, Ovarian, averaged over cell lines, 48 h, sulforhodamine B, 10^-4 to 10^-8 M; for Log GI (M): Table S3, Ovarian, averaged activity for the cancer type, log GI50
Procedure: as §1, §2

Colon cancer cell lines = experiment: NCI-60 screening, average of cancer type; format: cell-based, human; conditions: for log GI50: Table 5, Colon, averaged over cell lines, 48 h, sulforhodamine B, 10^-4 to 10^-8 M; for Log GI (M): Table S3, Colon, averaged activity for the cancer type, log GI50
Procedure: as §1, §2

[2] = tested on: Prostate cancer cell lines; experiment: NCI-60 screening, average of cancer type; format: cell-based, human; conditions: for log GI50: Table 5, Prostate, averaged over cell lines, 48 h, sulforhodamine B, 10^-4 to 10^-8 M; for Log GI (M): Table S3, Prostate, averaged activity for the cancer type, log GI50
Procedure: as §1, §2

Breast cancer cell lines = experiment: NCI-60 screening, average of cancer type; format: cell-based, human; conditions: for log GI50: Table 5, Breast, averaged over cell lines, 48 h, sulforhodamine B, 10^-4 to 10^-8 M; for Log GI (M): Table S3, Breast, averaged activity for the cancer type, log GI50
Procedure: as §1, §2

CNS cancer cell lines = experiment: NCI-60 screening, average of cancer type; format: cell-based, human; conditions: for log GI50: Table 5, CNS, averaged over cell lines, 48 h, sulforhodamine B, 10^-4 to 10^-8 M; for Log GI (M): Table S3, CNS, averaged activity for the cancer type, log GI50
Procedure: as §1, §2

Lung cancer cell lines = experiment: NCI-60 screening, average of cancer type; format: cell-based, human; conditions: for log GI50: Table 5, Lung, averaged over cell lines, 48 h, sulforhodamine B, 10^-4 to 10^-8 M; for Log GI (M): Table S3, Lung, averaged activity for the cancer type, log GI50
Procedure: as §1, §2

human erythrocytes = experiment: Hemolysis assay; format: cell-based; conditions: for Eryhtr. HC50 /µM: 1 h
Method in brief: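 Washed human erythrocytes (5% v/v in PBS) were mixed with peptide plated as a 200–6.25 μM series, in triplicate, for 1 h at 37 °C. Released haemoglobin in the supernatant was read at 540 nm, scaled to 0.1% Triton X-100 (100%) and PBS (0%). HC50 came from a 3-parameter log-logistic fit.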

U251 = experiment: NCI-60 screening; format: cell-based, human; conditions: U251 (CNS); log GI50; 48 h, sulforhodamine B, 10^-4 to 10^-8 M
Procedure: as §1, §2

SK-OV-3 = experiment: NCI-60 screening; format: cell-based, human; conditions: SK-OV-3 (Ovarian); log GI50; 48 h, sulforhodamine B, 10^-4 to 10^-8 M
Procedure: as §1, §2

MDA-MB-468 = experiment: NCI-60 screening; format: cell-based, human; conditions: MDA-MB-468 (Breast); log GI50; 48 h, sulforhodamine B, 10^-4 to 10^-8 M
Procedure: as §1, §2

SF-295 = experiment: NCI-60 screening; format: cell-based, human; conditions: SF-295 (CNS); log GI50; 48 h, sulforhodamine B, 10^-4 to 10^-8 M
Procedure: as §1, §2

HL-60 = experiment: NCI-60 screening; format: cell-based, human; conditions: HL-60 (Leukemia); log GI50; 48 h, sulforhodamine B, 10^-4 to 10^-8 M
Procedure: as §1, §2

SR = experiment: NCI-60 screening; format: cell-based, human; conditions: SR (Leukemia); log GI50; 48 h, sulforhodamine B, 10^-4 to 10^-8 M
Procedure: as §1, §2

OVCAR-8 = experiment: NCI-60 screening; format: cell-based, human; conditions: OVCAR-8 (Ovarian); log GI50; 48 h, sulforhodamine B, 10^-4 to 10^-8 M
Procedure: as §1, §2

MALME-3M = experiment: NCI-60 screening; format: cell-based, human; conditions: MALME-3M (Melanoma); log GI50; 48 h, sulforhodamine B, 10^-4 to 10^-8 M
Procedure: as §1, §2

SMILES | log GI50 (Leukemia cell lines) [M] | Log GI (M) (Leukemia cell lines) | log GI50 (Melanoma cell lines) [M] | Log GI (M) (Melanoma cell lines) | log GI50 (Renal cancer cell lines) [M] | Log GI (M) (Renal cancer cell lines) | log GI50 [1] [M] | Log GI (M) [1] [M] | log GI50 (Colon cancer cell lines) [M] | Log GI (M) (Colon cancer cell lines) | log GI50 [2] [M] | Log GI (M) [2] [M] | log GI50 (Breast cancer cell lines) [M] | Log GI (M) (Breast cancer cell lines) | log GI50 (CNS cancer cell lines) [M] | Log GI (M) (CNS cancer cell lines) | log GI50 (Lung cancer cell lines) [M] | Log GI (M) (Lung cancer cell lines) | Log GI (M) (U251) | Log GI (M) (SK-OV-3) | further results
CC[C@H](C)[C@H](NC(=O)[C@H](CCCNC(=N)N)NC(=O)[C@H](Cc1c[nH]c2ccccc12)NC(=O)[C@@H](NC(=O)[C@H](CCCCN)NC(=O)[C@H](CCCCN)NC(=O)[C@@H](NC(=O)[C@@H](NC(=O)[C@@H](NC(=O)[C@H](CCCCN)NC(=O)[C@H](Cc1ccccc1)NC(=O)[C@H](CCCCN)NC(=O)[C@H](CCCCN)NC(=O)[C@H](Cc1ccccc1)NC(=O)[C@@H](NC(=O)[C@@H](N)CCCCN)[C@@H](C)CC)[C@@H](C)O)[C@@H](C)CC)[C@@H](C)CC)C(C)C)C(=O)N[C@@H](Cc1ccccc1)C(=O)NCC(=O)N[C@@H](CCCNC(=N)N)C(=O)N[C@@H](Cc1ccccc1)C(N)=O [AmphiArc2] (H-KIFKKFKTIIKKVWRIFGRF-NH2) | −5.5 | -5.50 | −5.6 | -5.64 | −5.7 | -5.67 | −5.6 | -5.60 | −5.6 | -5.57 | −5.7 | -5.72 | −5.6 | -5.65 | −5.6 | -5.63 | −5.6 | -5.65 | -5.52 | -5.50 | half-effective hemolytic concentration (HC50) against human erythrocytes (in words) (human erythrocytes; Fig. 1d, compared with the EC50 against cancer cell lines, N = 3): same low-micromolar range; Eryhtr. HC50 /µM (human erythrocytes; Table S2, 5% v/v erythrocytes in PBS added 1:1, peptide 200 to 6.25 µM, 37°C, absorbance 540 nm, 0.1% Triton-X-100 = 100%, mean ± sd, N = 2 independent, three technical replicates): 16 ± 2 µM; Log GI (M) (MDA-MB-468): -5.88 M; Log GI (M) (SF-295): -5.69 M; Log GI (M) (HL-60): -5.28 M; Log GI (M) (SR): -5.57 M; Log GI (M) (OVCAR-8): -5.48 M; Log GI (M) (MALME-3M): -5.89 M
CC[C@H](C)[C@H](NC(=O)[C@H](CCCCN)NC(=O)[C@H](CCCCN)NC(=O)[C@@H](NC(=O)[C@@H](NC(=O)[C@@H](N)Cc1c[nH]cn1)[C@@H](C)CC)[C@@H](C)CC)C(=O)N[C@@H](CCCNC(=N)N)C(=O)N[C@H](C(=O)N[C@@H](Cc1c[nH]c2ccccc12)C(=O)N[C@@H](Cc1ccc(O)cc1)C(=O)N[C@@H](CCCNC(=N)N)C(=O)N[C@@H](CCCCN)C(=O)N[C@@H](C)C(=O)N[C@@H](Cc1c[nH]c2ccccc12)C(=O)N[C@@H](Cc1c[nH]cn1)C(=O)N[C@H](C(=O)N[C@@H](CC(C)C)C(=O)NCC(=O)N[C@@H](CCCCN)C(=O)N[C@H](C(N)=O)C(C)C)C(C)C)[C@@H](C)O [Off2] (H-HIIKKIRTWYRKAWHVLGKV-NH2) | −5.2 | -5.17 | −5.3 | -5.33 | −5.3 | -5.28 | −5.2 | -5.17 | −5.2 | -5.24 | −5.5 | -5.46 | −5.4 | -5.36 | −5.2 | -5.21 | −5.4 | -5.37 | -5.14 | -5.20 | Eryhtr. HC50 /µM (human erythrocytes; red cells of human): > 200 µM; Log GI (M) (MDA-MB-468): -5.19 M; Log GI (M) (SF-295): -5.32 M; Log GI (M) (HL-60): -5.37 M; Log GI (M) (SR): -5.15 M; Log GI (M) (OVCAR-8): -5.32 M; Log GI (M) (MALME-3M): -5.64 M

— article PMC6677754, “In silico design and optimization of selective membranolytic anticancer peptides” (Scientific Reports, 2019)
